{"source": "paper PMC5522427", "about": "“Structural and Functional Analysis of Latex Clearing Protein (Lcp) Provides Insight into the Enzymatic Cleavage of Rubber” (Scientific Reports, 2017)", "biological_target": "T1, LcpK30 (Streptomyces sp. K30, UniProt Q3L8N0)", "T1 construct": "gene lcp; monomer; residues 31-403 modelled; haem b", "T1 sequence (Q3L8N0 31-407)": "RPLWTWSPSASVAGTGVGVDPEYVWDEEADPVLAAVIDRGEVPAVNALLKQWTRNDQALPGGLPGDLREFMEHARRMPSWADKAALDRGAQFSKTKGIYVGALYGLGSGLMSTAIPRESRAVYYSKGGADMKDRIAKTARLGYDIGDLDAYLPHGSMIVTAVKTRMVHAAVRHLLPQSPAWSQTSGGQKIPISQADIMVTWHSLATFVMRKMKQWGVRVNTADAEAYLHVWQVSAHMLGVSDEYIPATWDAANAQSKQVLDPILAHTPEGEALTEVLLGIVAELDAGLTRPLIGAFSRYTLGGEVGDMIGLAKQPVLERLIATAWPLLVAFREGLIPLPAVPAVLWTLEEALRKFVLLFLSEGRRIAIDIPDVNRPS", "experiment": "crystal structure of complex ([…] Å); EPR", "format": "binding", "conditions": "open state; imidazole coordinates haem iron as distal axial ligand, replacing Lys167; 0.2 M malate/imidazole pH 7.5 (crystal); 1 mM imidazole (EPR); ferric as isolated"}
{"smiles": "c1c[nH]cn1", "note": "[imidazole]", "values": [{"measurement": "crystal structure of complex (1.48 Å); EPR", "result": "the distal axial position at the haem iron was now occupied by an imidazole molecule"}]}
